Where only a bound is given, the exact number is not on record here.

The first assay concerns Human fibrosarcoma cells (HT-1080 cells). Description: In vitro inhibitory action against ferroptosis (Erastin-induced cell death, Cell Counting Kit-8). In kind it is cell-based. To be noted: Evaluation concentration 30 μmol/L, Erastin 3 μmol/L, 24 hours. How it is done:
The inhibitory action against ferroptosis of the tetrahydroquinoline derivative (I) or a pharmaceutically acceptable salt thereof was evaluated with Human fibrosarcoma cells (HT-1080 cells), by using, as an index, the inhibitory action against the cell death induced by treatment with a ferroptosis inducer, Erastin.
HT-1080 cells (ATCC) were cultured in a mixture (hereinafter referred to as vehicle) composed of DMEM/F12 (Thermo Fisher Scientific, Inc.), a final concentration of 10% fetal bovine serum (Thermo Fisher Scientific, Inc.), and a final concentration of 1% penicillin-streptomycin solution (Nacalai Tesque, Inc.). Cells were seeded into 96-well plates (Corning Inc.) at 5×10^4 cells/well and cultured overnight.
A test compound was dissolved in DMSO, and the resulting solution was diluted in the vehicle to a final concentration of 1% DMSO and then used. […] Twenty-four hours after the addition of Erastin, 5 μL of Cell Counting Kit-8 (Dojindo Laboratories) was added to each well and incubated for 4 hours, and the absorbance at 450 nm was then measured for each well (N=2). The average absorbance value at 450 nm was calculated from the absorbance values of the wells, and the inhibition rate of ferroptosis by the test compound (hereinafter referred to as ferroptosis inhibition rate, %) was then calculated based on Equation 1.
In the case of “7-fluoro-(1H-pyrazol-4-yl)-1,2,3,4-tetrahydroquinoline [Example 140]”, the “Ferroptosis inhibition rate (%)” value is listed as 72.81%.

Test system in a further assay: not listed separately
Kind of assay: In vitro radical scavenging action (DPPH method).
Details: not given
How it is done: The radical scavenging action of a test compound can be evaluated using an in vitro test and, for example, by a method (Antioxidants, 2019, vol. 258) using a stable radical, 1,1-diphenyl-2-picrylhydrazil (DPPH).
Radical scavenging action was evaluated using the DPPH method in the compound of Comparative Example 1, which is a tetrahydroquinoxaline derivative, and in the tetrahydroquinoline derivative (I) or a pharmaceutically acceptable salt thereof. The DPPH method was performed using an antioxidant capacity measurement kit (Dojindo Laboratories).
A test compound was dissolved in DMSO, and the resulting solution was then mixed with an assay buffer and a DPPH solution, which are included in the kit, to a total volume of 200 μL to obtain a final concentration of 10% DMSO, and the reaction was allowed to proceed. Wells added with […] ferrostatin-1, a radical scavenger, were grouped as “control,” and wells not added with test compound were grouped as “background”. The test compound was serially diluted 3-fold starting from a maximum concentration of 100 μmol/L, and the diluted test compound (1.2, 3.7, 11.1, 33.3, or 100 μmol/L) was added and allowed to react at room temperature. Thirty minutes after the reaction, the absorbance at 517 nm was measured, and the average absorbance value was calculated (N=2). The radical scavenging action of the test compound (hereinafter referred to as radical scavenging rate, %) was calculated based on Equation 2. The EC50 value of the test compound was calculated from the radical scavenging rate.
A note “no detection of radical scavenging action (N.D.),” is given to compounds with a EC50 of >100 μmol/L.
As to `c1ccc(C2CNc3ccccc3N2)cc1` (stereo not drawn) [Comparative Example 1, 2-phenyl-1,2,3,4-tetrahydroquinoxaline, reference compound], the “radical scavenging action (in words)” value is “exhibited radical scavenging action”.

Still in this assay, the particulars now being: 1.2-100 μmol/L, 30 minutes at room temperature, absorbance at 517 nm.
In the case of `Cl.c1ccc(C2CCc3ccccc3N2)cc1` (stereo not drawn) [Example 1, 2-phenyl-1,2,3,4-tetrahydroquinoline hydrochloride], the EC50 was > 100 µM.
For `OCc1ccc2c(c1)CCC(c1ccccc1)N2` (stereo not drawn) [Example 58, (2-phenyl-1,2,3,4-tetrahydroquinolin-6-yl)methanol], the EC50 was > 100 µM.
On the same count and under the same terms, to `O=C(Cc1ccc2c(c1)CCC(c1ccccc1)N2)NC1CC1` (stereo not drawn) [Example 152, N-cyclopropyl-2-(2-phenyl-1,2,3,4-tetrahydroquinolin-6-yl)acetamide] belongs > 100 µM; to `FC(F)(F)c1ccc(C2CCc3ccccc3N2)cc1` (stereo not drawn) [Example 29, 2-(4-(trifluoromethyl)phenyl)-1,2,3,4-tetrahydroquinoline], > 100 µM.
`NS(=O)(=O)c1ccc(C2CCc3ccc(F)cc3N2)cc1` (stereo not drawn) [Example 118, 4-(7-fluoro-1,2,3,4-tetrahydroquinolin-2-yl)benzenesulfonamide]: the half-maximal effective concentration (EC50) was > 100 µM.
The same measure, in the same setting: to `CC(C)(C)NC(=O)Cc1ccc2c(c1)CCC(c1ccccc1)N2` (stereo not drawn) [Example 61, N-(tert-butyl)-2-(2-phenyl-1,2,3,4-tetrahydroquinolin-6-yl)acetamide] belongs > 100 µM.
`NS(=O)(=O)c1ccc(C2CCc3c(Cl)cccc3N2)cc1` (stereo not drawn) [Example 134, 4-(5-chloro-1,2,3,4-tetrahydroquinolin-2-yl)benzenesulfonamide]: the 50% effective concentration (EC50) was > 100 µM.
For `NC(=O)c1ccc(C2CCc3cc(F)ccc3N2)cc1` (stereo not drawn) [Example 132, 4-(6-fluoro-1,2,3,4-tetrahydroquinolin-2-yl)benzamide], the EC50 is > 100 µM.
On the same count and under the same terms, the result for `NC(=O)c1ccc(C2CCc3c(F)cccc3N2)cc1` (stereo not drawn) [Example 137, 4-(5-fluoro-1,2,3,4-tetrahydroquinolin-2-yl)benzamide] reads > 100 µM; that for `O=C(Cc1ccc2c(c1)CCC(c1ccccc1)N2)N1CCC1` (stereo not drawn) [Example 151, 1-(azetidin-1-yl)-2-(2-phenyl-1,2,3,4-tetrahydroquinolin-6-yl)ethan-1-one], > 100 µM; that for `FC(F)(F)Oc1ccc2c(c1)CCC(c1ccccc1)N2` (stereo not drawn) [Example 81, 2-phenyl-6-(trifluoromethoxy)-1,2,3,4-tetrahydroquinoline], > 100 µM.
On the same count and under the same terms, to `c1ccc(C2CNc3ccccc3N2)cc1` (stereo not drawn) [Comparative Example 1, 2-phenyl-1,2,3,4-tetrahydroquinoxaline, reference compound] belongs 8.54 µM; to `NC(=O)c1ccc(C2CCc3cc(Cl)ccc3N2)cc1` (stereo not drawn) [Example 121, 4-(6-chloro-1,2,3,4-tetrahydroquinolin-2-yl)benzamide], > 100 µM; to `NC(=O)c1ccc(C2CCc3ccccc3N2)cc1` (stereo not drawn) [Example 37, 4-(1,2,3,4-tetrahydroquinolin-2-yl)benzamide], > 100 µM.
Same read-out and setting: the result for `COC1CN(C(=O)Cc2ccc3c(c2)CCC(c2ccccc2)N3)C1` (stereo not drawn) [Example 147, 1-(3-methoxyazetidin-1-yl)-2-(2-phenyl-1,2,3,4-tetrahydroquinolin-6-yl)ethan-1-one] reads > 100 µM; that for `O=C(Cc1ccc2c(c1)CCC(c1ccccc1)N2)N1CC(F)(F)C1` (stereo not drawn) [Example 160, 1-(3,3-difluoroazetidin-1-yl)-2-(2-phenyl-1,2,3,4-tetrahydroquinolin-6-yl)ethan-1-one], > 100 µM; that for `Fc1ccc(C2CCc3ccccc3N2)cc1` (stereo not drawn) [Example 26, 2-(4-fluorophenyl)-1,2,3,4-tetrahydroquinoline], > 100 µM.
Take `NS(=O)(=O)c1ccc(C2CCc3c(F)cccc3N2)cc1` (stereo not drawn) [Example 135, 4-(5-fluoro-1,2,3,4-tetrahydroquinolin-2-yl)benzenesulfonamide]: the EC50 was > 100 µM.
Same read-out and setting: to `O=C(Cc1ccc2c(c1)CCC(c1ccccc1)N2)NC1COC1` (stereo not drawn) [Example 148, N-(oxetan-3-yl)-2-(2-phenyl-1,2,3,4-tetrahydroquinolin-6-yl)acetamide] belongs > 100 µM.
For `NS(=O)(=O)c1ccc(C2CCc3cc(Cl)ccc3N2)cc1` (stereo not drawn) [Example 115, 4-(6-chloro-1,2,3,4-tetrahydroquinolin-2-yl)benzenesulfonamide], the EC50 is > 100 µM.
The same measure, in the same setting: the result for `Cc1ccc2c(c1)NC(c1ccc(S(N)(=O)=O)cc1)CC2` (stereo not drawn) [Example 105, 4-(7-methyl-1,2,3,4-tetrahydroquinolin-2-yl)benzenesulfonamide] reads > 100 µM.
On to `CS(=O)(=O)Nc1ccc(C2CCc3ccccc3N2)cc1` (stereo not drawn) [Example 136, N-(4-(1,2,3,4-tetrahydroquinolin-2-yl)phenyl)methanesulfonamide], for which the half-maximal effective concentration (EC50) was > 100 µM.
Take `O=C(Cc1ccc2c(c1)CCC(c1ccccc1)N2)N1CC(F)(F)C1` (stereo not drawn) [Example 161, 1-(3,3-difluoroazetidin-1-yl)-2-(2-phenyl-1,2,3,4-tetrahydroquinolin-6-yl)ethan-1-one]: the EC50 was > 100 µM.
For the compound `Cc1ccc2c(c1)NC(c1ccc(C(N)=O)cc1)CC2` (stereo not drawn) [Example 106, 4-(7-methyl-1,2,3,4-tetrahydroquinolin-2-yl)benzamide], the EC50 is > 100 µM.
`NS(=O)(=O)c1ccc(C2CCc3cc(F)ccc3N2)cc1` (stereo not drawn) [Example 109, 4-(6-fluoro-1,2,3,4-tetrahydroquinolin-2-yl)benzenesulfonamide]: the EC50 is > 100 µM.
`NC(=O)Cc1ccc2c(c1)CCC(c1ccccc1)N2` (stereo not drawn) [Example 60, 2-(2-phenyl-1,2,3,4-tetrahydroquinolin-6-yl)acetamide]: the EC50 is > 100 µM.
Turning to `NS(=O)(=O)c1ccc(C2CCc3cc(F)ccc3N2)cc1` (stereo not drawn) [Example 108, 4-(6-fluoro-1,2,3,4-tetrahydroquinolin-2-yl)benzenesulfonamide], the EC50 was > 100 µM.
Consider `c1ccc([C@@H]2CCc3ccccc3N2)cc1` [Example 3, (S)-2-phenyl-1,2,3,4-tetrahydroquinoline], for which the EC50 is > 100 µM.

A further assay concerns superoxide dismutase 1 (SOD1) G93A transgenic mice. Kind of assay: Assessment of motor dysfunction in amyotrophic lateral sclerosis model mouse (hind limb extension test). Type of assay: in vivo. To be noted: 100 mg/kg orally once daily, five times a week, from 56 days of age for 10 weeks; male SOD1 G93A transgenic mice; n=9. How it is done:
The effect of the tetrahydroquinoline derivative (I) or a pharmaceutically acceptable salt thereof on the onset of a motor dysfunction in superoxide dismutase 1 (SOD1) G93A transgenic mice that are amyotrophic lateral sclerosis model mice was tested. The tetrahydroquinoline derivative (I) or a pharmaceutically acceptable salt thereof was evaluated using the compound of Example 1. The amyotrophic lateral sclerosis model mice used were transgenic mice overexpressing human superoxide dismutase 1 (SOD1) with G93A mutation (Jackson Laboratories #004435). Male transgenic mice and wild-type female C57BL/6J mice from Charles River were mated. The tail tips of the born offspring mice were used for genotyping. The obtained male transgenic mice were used for the evaluation. The test substance (compound of Example 1) was prepared as a suspension with the required concentration (10 mg/mL) using 0.5 w/v % methylcellulose as the vehicle, and was administered repeatedly and orally, once daily, five times a week, at a dosing volume of 10 mL/kg, or 100 mg/kg, starting at 56 days of age and continuing for 10 weeks (50 doses in total) until the mice reached 126 days of age. A group administered repeatedly and orally with the compound of Example 1 was termed the “Example 1” group (n=9). In addition, a group administered with 0.5 w/v % methylcellulose in the same volume, frequency, and method as the compound of Example 1 was termed the “vehicle” group (n=6). Whenever possible, litters were divided into both groups. Starting from the beginning of administration, a hind limb extension test was conducted before each dose to evaluate the motor function. […] The hind limb extension test was performed five times a week.
`Cl.c1ccc(C2CCc3ccccc3N2)cc1` (stereo not drawn) [Example 1, 2-phenyl-1,2,3,4-tetrahydroquinoline hydrochloride]: the “median value of the onset age in days” value is recorded as 121.0 days of age.

The assay is the same for the next values; noted with them: 100 mg/kg orally once daily, five times a week, from 56 days of age for 10 weeks; significantly higher than vehicle group.
For `Cl.c1ccc(C2CCc3ccccc3N2)cc1` (stereo not drawn) [Example 1, 2-phenyl-1,2,3,4-tetrahydroquinoline hydrochloride], the “age of onset in days vs vehicle group, log-rank (Mantel-Cox) test p” value is recorded as < 0.05.

Staying with this assay, now noted: compared to the vehicle group.
Turning to `Cl.c1ccc(C2CCc3ccccc3N2)cc1` (stereo not drawn) [Example 1, 2-phenyl-1,2,3,4-tetrahydroquinoline hydrochloride], the “effect on onset of motor dysfunction in amyotrophic lateral sclerosis model mice (in words)” value was “delay the onset”.
